Assay results published in PMC4108065, “Inflammation and pancreatic cancer: molecular and functional interactions between S100A8, S100A9, NT-S100A8 and TGFβ1” (Cell Communication and Signaling : CCS, 2014).

Tests used:
Type in all cases: cell-based, human
[1] = tested on: BxPC3 [Ca2+]i; test: Intracellular calcium, fluo-4 epifluorescence, BxPC3; conditions: for alterations in [Ca2+]i: BxPC3, single treatment, monitored for 500 seconds, 0.02 ng/ml TGFβ1, 10 nM S100A8, 10 nM S100A9
Protocol: BxPC3 and MiaPaCa2 cells, seeded (80 × 10^3 cells) on coverslips that had been inserted within each well of six well culture plates, were kept in their respective complete media for 24 hours. Coverslips were then incubated for 10 min at 37°C with 3 μM fluo-4 AM (Invitrogen S.R.L.) in an imaging buffer containing 137 mM NaCl, 5 mM KCl, 1.2 mM MgCl2, 0.44 mM KH2PO4, 4.2 mM NaHCO3, 5 mM glucose, and 20 mM HEPES pH 7.4. The cells were carefully washed with the imaging buffer after its removal. Calcium oscillations were then analyzed by means of an inverted epifluorescence microscope equipped with a top stage incubator (Tokai Hit INU-F1, Tokai Hit, Shizuoka-Ken, Japan) in order to keep cells in the optimal culturing environment. As an illumination source, we used a mercury arc discharge lamp and selected excitation and emission wavelengths with an FITC filter cube (EX 465–495 DM505 EM 515–555 nm). Use was made of an 60X1.45NA objective (Nikon Instruments S.P.A., Firenze, Italy) and, in order to minimize phototoxicity and photobleaching, a back-thinned electron multiplied CCD camera C9100-13 Imagem (Hamamatsu Photonics Italia S.R.L., Milano, Italy). After the first minute, required to achieve optimal culture conditions, intracellular fluorescence was continuously monitored (3 frames/sec) for 12 min. In all experiments, […], the cells were maintained in imaging buffer for the first 2 minutes, after which they were stimulated with 10 nM S100A8, 10 nM S100A9 and 50 nM NT-S100A8, alone or in combination with 0.02 ng/ml TGFβ1. For all stimuli, additions were made directly to the microscope chamber without interrupting the recording. The fluorescence signal was quantified by measuring the mean pixel value of a manually selected cellular area for each frame of the image stack using the HCimage system (Hamamatsu Photonics Italia S.R.L.). For all the experimental conditions, at least 3 independents sets of experiments were performed.

[2] = tested on: IκBα phosphorylation at Ser32; test: NF-κB signaling, western blot of IκBα phosphorylation in PDAC cell lines; conditions: BxPC3, Capan1, MiaPaCa2, Panc1, 10 min, 10 nM S100A8, S100A9, S100A8/A9, 50 nM NT-S100A8, 0.02 ng/ml TGFβ1
Protocol: Five million cells were seeded in Petri dishes (ø 10 cm) and cultured for 24 hours in their respective complete media prior to starting the experiments. Cells remained non-stimulated (negative control) or were stimulated with 50 mU insulin (positive control) (Insuman Rapid, Sanofi-Aventis, Deutschland, GmbH) for 10 min; in parallel, experimental cells were stimulated with 50 nM NT-S100A8, 0,02 ng/ml TGFβ1 (ProSpec-Tany TechnoGene), 10 nM S100A8 and 10 nM S100A9 alone or combined for 10 min. Following stimulations, Petri dishes were immediately transferred into an ice bath, and the cells were washed twice with cold PBS, re-suspended in 100 μl of cold lysis buffer [20 mM Tris–HCl, pH 7.5, 150 mM NaCl, 1 mM EDTA, 1% Triton-X 100, 50 mM NaF, 10 mM Na4P2O7,1 mM Na3VO4, and 10% protease inhibitor cocktail (Sigma Aldrich SRL, Milano, Italy)]. Lysates were centrifuged for 10 min at 14,000 rpm at 4°C and, in the supernatants, total proteins were measured using the Bio-Rad protein assay (Bio-Rad Laboratories, Milano, Italy). Each experiment was performed at least in triplicate.
For each sample, 40 μg proteins were electrophoresed through 4–12% NuPAGE®NovexBis-Tris SDS–PAGE Gel or 3-8% NuPAGE®NovexTris-Acetate SDS–PAGE Gel (Invitrogen S.R.L., Life Technologies, Monza, Italy) and electrophoretically transferred to Nitrocellulose Membrane (iBlot® Transfer Stack, Invitrogen S.R.L.) by means of the iBlotTMDry Blotting System (Invitrogen S.R.L.). Following incubation for 1 hour in a blocking buffer [5% low fat powder milk re-suspended in PBS-T (PBS with 0.1% Tween-20)], membranes were incubated overnight at 4°C with the primary antibodies [antiphospho IkB-α (Ser^32) (Santa Cruz Biotechnology, Inc., Santa Cruz, CA, USA); anti-phospho-Akt (Ser^473), anti-phospho-Akt (Thr^308), anti-Akt and anti-phospho-S6 Ribosomal Protein (Ser^235/236), anti-cleaved Caspase-3, anti-phospho-Stat3 Tyr^705, anti-β-actin, anti-phospho mTOR (Ser^2448, Ser^2481) (Cell Signaling Technology, Danvers, MA, USA); anti-RAGE (R&D Systems, Minneapolis, MN, USA) ] diluted 1:5000 (β-actin), 1:2000 (mTOR, cleaved Caspase-3, Stat3) or 1:3000 (all the others) in the blocking buffer. The blots, washed three times in PBS-T for 15 min, were incubated with […] anti-rabbit (Cell Signaling Technology) or anti-goat (Sigma Aldrich) secondary antibodies and then washed three times in PBS-T for 15 min and developed with the ECL Advance Western Blot Detection Kit (GE Healthcare Technologies, Milan, Italy).

[3] = tested on: Capan1; test: XTT cell viability assay, Capan1; conditions: 48 hours, TGFβ1 0.02 ng/ml, NT-S100A8 50 nM, S100A8 10 nM, S100A9 10 nM, alone or combined, at least three independent experiments in quadruplicate
Protocol: (§1) BxPC3, Capan1, MiaPaCa2, Panc1 and BxPC3-SMAD4+ cells were seeded (2000 cells per well) in 96-well cell culture plates and cultured in complete media for 24 hours. Media were then replaced with fresh cell culture media in absence (control) or in presence of TGFβ1 (0.02 ng/ml) and NT-S100A8 (50 nM), alone or combined or in absence (control) or in presence of TGFβ1 (0.02 ng/ml), S100A8 (10 nM) and S100A9 (10 nM) alone or combined. Cell growth was assessed after 48 hours using the XTT cell viability test (Roche, Milano, Italy). At least three independent experiements, each made in quadruplicate, were run. The results were expressed as percentage with respect to the median Abs450nm of control cells run in the same experimental set.

[4] = tested on: MiaPaCa2; test: XTT cell viability assay, MiaPaCa2; conditions: 48 hours, TGFβ1 0.02 ng/ml, NT-S100A8 50 nM, S100A8 10 nM, S100A9 10 nM, alone or combined, at least three independent experiments in quadruplicate
Protocol: as §1

| Substance | effect of TGFβ1 on the induced [Ca2+]i oscillations ([1]; BxPC3, combination with 0.02 ng/ml TGFβ1) | IκBα phosphorylation (Ser32) [2] | Capan1 % to Control Mean± SEM [3] | alterations in [Ca2+]i [1] | MiaPaCa2 % to Control Mean± SEM [4] |
| --- | --- | --- | --- | --- | --- |
| NT-S100A8: 14 N-terminal aminoacid peptide of S100A8, isolated from PDAC tissues (MLTELEKALNSIID; UniProt P05109 1-14, looked up, fragment) | synergized and accelerated by TGFβ1 | reduced IκBα phosphorylation in Capan1, MiaPaCa2 and Panc1, not in BxPC3 |  |  |  |
| S100A8: inflammatory calcium binding protein S100A8 (ProSpec-Tany TechnoGene) |  | reduced IκBα phosphorylation in Capan1, MiaPaCa2 and Panc1, not in BxPC3 | 96.22 ± 2.91 % to Control | did not determine evident alterations in [Ca^2+]i | 102.13± 4.93 % to Control |
| S100A9: inflammatory calcium binding protein S100A9, S100A8 binding partner |  | reduced IκBα phosphorylation in Capan1, MiaPaCa2 and Panc1, not in BxPC3 | 103.07 ± 2.90 % to Control | did not determine evident alterations in [Ca^2+]i | 104.38± 4.09 % to Control |
| TGFβ1: transforming growth factor beta 1 (ProSpec-Tany TechnoGene) |  | no significant effects | 104.31 ± 2.68 % to Control | did not determine evident alterations in [Ca^2+]i | 102.11 ± 4.65 % to Control |
